The species named for one series is Rattus norvegicus. The series is described as follows: SafetyScreen: KV (Non-Selective) Rat Potassium Ion Channel [125I] alpha-Dendrotoxin Binding LeadHunter Assay, catalogue number: 166. The settings on record: Test compound concentration 10.0 uM.
For series [1], the target named is Sodium-dependent dopamine transporter (Homo sapiens) (UniProt Q01959). The series is described as follows: SafetyScreen: DAT Human Dopamine Transporter Binding Antagonist Radioligand LeadHunter Assay, catalogue number: 52. The settings on record: Test compound concentration 10.0 uM.
The target in series [2] is 5-hydroxytryptamine receptor 2A (Homo sapiens) (UniProt P28223). The series can be described thus: SafetyScreen: 5-HT2A Human Serotonin GPCR Binding Agonist Radioligand LeadHunter Assay, catalogue number: 471. The settings on record: Test compound concentration 10.0 uM.
Series [3] has as its target 5-hydroxytryptamine receptor 1B (Homo sapiens) (UniProt P28222). The series is described as follows: SafetyScreen: 5-HT1B Human Serotonin GPCR Binding Antagonist Radioligand LeadHunter Assay, catalogue number: 4376. To be noted: Test compound concentration 10.0 uM.
For series [4], the target named is Mu-type opioid receptor (Homo sapiens) (UniProt P35372). The series can be described thus: SafetyScreen: mu (MOP) Human Opioid GPCR Binding Agonist Radioligand LeadHunter Assay, catalogue number: 118. The settings on record: Test compound concentration 10.0 uM.
In series [5] the target is Glutamate NMDA receptor (Rattus norvegicus) (UniProt P35439+Q00959+Q00960+Q00961+Q62645+Q8VHN2+Q9R1M7). The series can be described thus: SafetyScreen: Glutamate (NMDA, Non-Selective) Rat Ion Channel [3H] CGP-39653 Binding LeadHunter Assay, catalogue number: 66. The settings on record: Test compound concentration 10.0 uM. In kind it is protein-complex assay.
Series [6] has as its target T1, Androgen receptor (Homo sapiens) (UniProt P10275).
T1 sequence (whole entry): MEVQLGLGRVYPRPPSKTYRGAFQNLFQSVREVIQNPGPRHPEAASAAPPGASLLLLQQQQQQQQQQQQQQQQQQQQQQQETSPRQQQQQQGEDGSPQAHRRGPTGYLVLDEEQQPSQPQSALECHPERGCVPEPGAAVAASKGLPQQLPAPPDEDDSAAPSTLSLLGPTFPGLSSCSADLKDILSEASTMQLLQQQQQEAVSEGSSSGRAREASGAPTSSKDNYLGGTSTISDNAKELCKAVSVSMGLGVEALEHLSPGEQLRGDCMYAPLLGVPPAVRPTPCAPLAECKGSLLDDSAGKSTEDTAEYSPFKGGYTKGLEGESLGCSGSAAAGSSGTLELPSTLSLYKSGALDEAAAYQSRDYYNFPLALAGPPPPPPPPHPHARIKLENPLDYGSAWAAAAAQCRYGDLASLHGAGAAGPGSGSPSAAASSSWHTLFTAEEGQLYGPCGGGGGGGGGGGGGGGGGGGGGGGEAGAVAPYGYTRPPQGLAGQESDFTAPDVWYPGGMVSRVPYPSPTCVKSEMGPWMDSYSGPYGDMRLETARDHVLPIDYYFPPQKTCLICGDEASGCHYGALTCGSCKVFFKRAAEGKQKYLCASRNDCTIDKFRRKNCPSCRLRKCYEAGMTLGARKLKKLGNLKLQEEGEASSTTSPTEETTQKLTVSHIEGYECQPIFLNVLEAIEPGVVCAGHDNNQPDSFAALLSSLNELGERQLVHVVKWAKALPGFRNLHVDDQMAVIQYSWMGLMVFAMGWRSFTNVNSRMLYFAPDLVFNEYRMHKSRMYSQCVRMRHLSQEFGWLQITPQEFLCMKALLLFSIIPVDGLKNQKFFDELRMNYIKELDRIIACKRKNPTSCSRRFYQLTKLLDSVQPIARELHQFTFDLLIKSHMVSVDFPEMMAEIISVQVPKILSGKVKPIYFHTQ
The series is described as follows: SafetyScreen: AR Human Androgen NHR Binding Agonist Radioligand LeadHunter Assay, catalogue number: 933. To be noted: Test compound concentration 10.0 uM.

The target of series [7] is Muscarinic acetylcholine receptor M3 (Homo sapiens) (UniProt P20309). The series is described as follows: SafetyScreen: M3 Human Acetylcholine (Muscarinic) GPCR Binding Antagonist Radioligand LeadHunter Assay, catalogue number: 95. The settings on record: Test compound concentration 10.0 uM.
The target in series [8] is T2, Prostaglandin G/H synthase 2 (Homo sapiens) (UniProt P35354).
T2 sequence (whole entry): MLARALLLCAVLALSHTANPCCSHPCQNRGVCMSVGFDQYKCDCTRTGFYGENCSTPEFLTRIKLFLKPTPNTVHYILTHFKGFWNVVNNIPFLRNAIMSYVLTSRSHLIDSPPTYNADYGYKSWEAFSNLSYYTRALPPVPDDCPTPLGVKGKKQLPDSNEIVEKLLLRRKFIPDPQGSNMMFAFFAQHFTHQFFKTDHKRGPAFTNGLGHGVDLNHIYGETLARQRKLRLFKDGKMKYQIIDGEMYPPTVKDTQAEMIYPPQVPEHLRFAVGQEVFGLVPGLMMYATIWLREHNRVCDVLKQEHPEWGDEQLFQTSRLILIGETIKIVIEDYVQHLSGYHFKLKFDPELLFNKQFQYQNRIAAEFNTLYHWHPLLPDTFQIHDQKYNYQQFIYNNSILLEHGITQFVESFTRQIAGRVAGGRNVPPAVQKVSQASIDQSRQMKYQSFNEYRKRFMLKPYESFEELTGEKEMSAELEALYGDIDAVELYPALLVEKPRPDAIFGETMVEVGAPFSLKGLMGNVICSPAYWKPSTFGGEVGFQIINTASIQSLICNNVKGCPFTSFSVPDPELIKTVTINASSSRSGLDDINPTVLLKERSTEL
The series is described as follows: SafetyScreen: COX2 Human Cyclooxygenase Enzymatic LeadHunter Assay, catalogue number: 4186. The series is classed as functional. To be noted: Test compound concentration 10.0 uM.

The target of series [9] is Vasopressin V1a receptor (Homo sapiens) (UniProt P37288). The series is described as follows: SafetyScreen: V1A Human Vasopressin / Oxytocin GPCR Binding Agonist Radioligand LeadHunter Assay, catalogue number: 159. The settings on record: Test compound concentration 10.0 uM.
For series [10], the system named is Voltage-gated sodium channel. The series is described as follows: SafetyScreen: Sodium Ion Channel Site 2 (Non-Selective) Rat Ion Channel [3H] Batrachotoxinin Binding LeadHunter Assay, catalogue number: 169. In kind it is protein assay. The settings on record: at 10 µM, test compound concentration 10 uM.
The target of series [11] is T3, Alpha-1A adrenergic receptor (Homo sapiens) (UniProt P35348).
T3 sequence (whole entry): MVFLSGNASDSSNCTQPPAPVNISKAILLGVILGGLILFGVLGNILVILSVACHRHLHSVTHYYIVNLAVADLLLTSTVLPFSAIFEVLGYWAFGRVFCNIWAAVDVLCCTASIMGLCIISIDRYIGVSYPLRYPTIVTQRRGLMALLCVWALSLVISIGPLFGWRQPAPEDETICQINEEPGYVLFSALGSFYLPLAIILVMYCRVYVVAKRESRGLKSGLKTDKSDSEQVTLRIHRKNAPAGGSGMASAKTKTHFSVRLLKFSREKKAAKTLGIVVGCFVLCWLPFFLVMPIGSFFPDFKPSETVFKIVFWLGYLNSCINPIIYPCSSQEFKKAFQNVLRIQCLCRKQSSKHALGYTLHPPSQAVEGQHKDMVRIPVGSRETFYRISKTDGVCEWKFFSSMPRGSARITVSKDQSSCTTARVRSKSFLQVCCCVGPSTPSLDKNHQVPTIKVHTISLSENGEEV
The series can be described thus: SafetyScreen: alpha1A Human Adrenoceptor GPCR Binding Antagonist Radioligand LeadHunter Assay, catalogue number: 2338. To be noted: Test compound concentration 10.0 uM.

For series [12], the target named is Voltage-gated L-type calcium channel (Rattus norvegicus, UniProt P22002+Q02485+P27732). The series is described as follows: SafetyScreen: Cav1.2 (L-type) Rat Calcium Ion Channel Binding (Dihydropyridine Site) LeadHunter Assay, catalogue number: 161. To be noted: at 10 µM, test compound concentration 10 uM. In kind it is protein assay.

Chain of Sodium-dependent dopamine transporter (Homo sapiens) (Q01959 whole entry): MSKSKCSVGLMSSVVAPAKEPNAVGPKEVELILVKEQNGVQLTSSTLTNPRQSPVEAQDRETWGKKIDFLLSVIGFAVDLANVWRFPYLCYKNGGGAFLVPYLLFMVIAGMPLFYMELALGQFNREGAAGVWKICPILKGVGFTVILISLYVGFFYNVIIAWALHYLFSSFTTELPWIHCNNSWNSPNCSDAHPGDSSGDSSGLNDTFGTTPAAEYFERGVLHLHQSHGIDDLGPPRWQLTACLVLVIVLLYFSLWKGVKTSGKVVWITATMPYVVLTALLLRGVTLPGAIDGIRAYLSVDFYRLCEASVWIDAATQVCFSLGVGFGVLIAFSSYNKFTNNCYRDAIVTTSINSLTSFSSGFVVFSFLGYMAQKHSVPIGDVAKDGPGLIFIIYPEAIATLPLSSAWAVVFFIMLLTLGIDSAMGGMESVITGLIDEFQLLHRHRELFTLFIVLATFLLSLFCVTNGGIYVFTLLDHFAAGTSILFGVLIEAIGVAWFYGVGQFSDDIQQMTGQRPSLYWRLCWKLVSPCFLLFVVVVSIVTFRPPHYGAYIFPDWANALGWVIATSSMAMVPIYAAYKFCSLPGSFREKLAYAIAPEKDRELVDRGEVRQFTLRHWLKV
Chain of Vasopressin V1a receptor (Homo sapiens) (P37288 whole entry, looked up): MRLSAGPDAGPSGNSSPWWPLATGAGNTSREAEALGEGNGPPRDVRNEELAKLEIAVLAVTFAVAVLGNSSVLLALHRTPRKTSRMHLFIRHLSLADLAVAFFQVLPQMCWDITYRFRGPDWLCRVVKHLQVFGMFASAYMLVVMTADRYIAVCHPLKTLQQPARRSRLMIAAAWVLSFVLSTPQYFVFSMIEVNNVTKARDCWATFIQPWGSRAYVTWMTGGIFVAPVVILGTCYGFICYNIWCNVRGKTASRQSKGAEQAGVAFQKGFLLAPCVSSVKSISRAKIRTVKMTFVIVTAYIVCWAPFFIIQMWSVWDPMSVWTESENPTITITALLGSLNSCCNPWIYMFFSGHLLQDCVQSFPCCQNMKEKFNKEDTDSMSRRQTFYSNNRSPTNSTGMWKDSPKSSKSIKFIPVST
Chain of Muscarinic acetylcholine receptor M3 (Homo sapiens) (P20309 whole entry, looked up): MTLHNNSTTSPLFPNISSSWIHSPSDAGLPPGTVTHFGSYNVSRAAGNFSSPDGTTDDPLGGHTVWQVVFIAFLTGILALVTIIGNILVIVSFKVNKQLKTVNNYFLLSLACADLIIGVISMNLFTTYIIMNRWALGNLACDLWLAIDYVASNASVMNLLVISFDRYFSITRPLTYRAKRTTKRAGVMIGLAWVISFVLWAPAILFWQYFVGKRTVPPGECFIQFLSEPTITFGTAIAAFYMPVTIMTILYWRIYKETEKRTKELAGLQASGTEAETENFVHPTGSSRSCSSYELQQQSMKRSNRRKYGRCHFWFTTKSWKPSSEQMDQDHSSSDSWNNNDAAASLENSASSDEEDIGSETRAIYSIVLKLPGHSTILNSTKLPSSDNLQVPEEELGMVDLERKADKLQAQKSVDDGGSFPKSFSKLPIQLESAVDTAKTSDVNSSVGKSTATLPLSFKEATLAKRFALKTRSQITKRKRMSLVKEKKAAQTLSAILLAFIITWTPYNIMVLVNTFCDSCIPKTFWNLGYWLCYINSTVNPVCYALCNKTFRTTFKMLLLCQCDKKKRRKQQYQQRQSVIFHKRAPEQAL
Chain of Mu-type opioid receptor (Homo sapiens) (P35372 whole entry): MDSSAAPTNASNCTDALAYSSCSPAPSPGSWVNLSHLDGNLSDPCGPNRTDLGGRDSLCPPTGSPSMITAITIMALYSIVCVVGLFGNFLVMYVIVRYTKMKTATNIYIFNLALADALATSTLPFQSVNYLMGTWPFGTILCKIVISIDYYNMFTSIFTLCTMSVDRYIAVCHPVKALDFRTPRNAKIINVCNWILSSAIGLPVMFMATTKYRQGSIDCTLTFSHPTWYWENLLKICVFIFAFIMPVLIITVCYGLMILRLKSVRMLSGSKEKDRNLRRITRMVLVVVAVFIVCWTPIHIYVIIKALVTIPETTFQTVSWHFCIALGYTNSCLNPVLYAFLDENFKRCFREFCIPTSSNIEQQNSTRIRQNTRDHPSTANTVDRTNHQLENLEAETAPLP
Chain of 5-hydroxytryptamine receptor 1B (Homo sapiens) (P28222 whole entry): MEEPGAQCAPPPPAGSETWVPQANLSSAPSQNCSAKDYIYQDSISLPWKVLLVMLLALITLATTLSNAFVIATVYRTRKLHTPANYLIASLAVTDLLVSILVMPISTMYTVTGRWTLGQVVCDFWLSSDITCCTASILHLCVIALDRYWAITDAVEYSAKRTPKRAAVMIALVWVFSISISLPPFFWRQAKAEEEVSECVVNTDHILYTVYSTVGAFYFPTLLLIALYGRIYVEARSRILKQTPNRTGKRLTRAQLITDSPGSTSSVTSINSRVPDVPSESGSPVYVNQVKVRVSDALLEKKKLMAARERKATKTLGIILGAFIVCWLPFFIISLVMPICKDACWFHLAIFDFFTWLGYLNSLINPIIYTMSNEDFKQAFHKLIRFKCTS
Chain of 5-hydroxytryptamine receptor 2A (Homo sapiens) (P28223 whole entry): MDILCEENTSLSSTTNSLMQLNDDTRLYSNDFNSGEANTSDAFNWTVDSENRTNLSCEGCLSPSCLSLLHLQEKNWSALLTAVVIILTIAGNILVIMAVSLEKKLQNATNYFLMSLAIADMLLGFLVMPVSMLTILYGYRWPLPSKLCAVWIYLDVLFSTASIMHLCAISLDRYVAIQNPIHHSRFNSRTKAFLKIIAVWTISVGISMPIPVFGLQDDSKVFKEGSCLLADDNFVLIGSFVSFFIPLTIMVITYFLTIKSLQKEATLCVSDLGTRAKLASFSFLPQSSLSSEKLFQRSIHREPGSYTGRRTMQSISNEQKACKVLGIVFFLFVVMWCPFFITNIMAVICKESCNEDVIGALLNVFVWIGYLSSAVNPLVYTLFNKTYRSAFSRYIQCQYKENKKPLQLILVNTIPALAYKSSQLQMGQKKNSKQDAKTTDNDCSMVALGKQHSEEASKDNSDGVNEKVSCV

Take `Cn1ncc(-c2cc3c(N[C@@H](c4ccc5c(n4)OCCO5)C(C)(C)C)ncnc3[nH]2)c1C#N`: the inhibition in the series listed under Rattus norvegicus is 5%; in [1], 50%; in series [2], -2%; in series [3], 18%; in [4] it was 28%; in series [5], 11%. Besides, the inhibition in [6] is 5%; in [7] it was -8%; in series [8], -9%; in [9], 57%; in [11] it was 54%. The Inhibition came out at 34% in [10] and 21% in series [12].
With `CC(C)[C@@H](Nc1ncnc2[nH]c(-c3cnn(C)c3C#N)cc12)c1ccc2c(n1)OCCO2`, the inhibition in the series filed under Rattus norvegicus was 2%; in [1] it was 30%; in series [2], 14%; in series [3], 4%; in series [4] it was 77%; in series [5], 1%. The inhibition in series [6] is 12%; in series [7], 1%; in [8], -7%; in series [9], 20%; in series [11], 11%. Further, the Inhibition turned out to be 12% in series [10] and 10% in series [12].
Turning to `CNC(=O)Cn1cc(-c2cc3c(N[C@@H](c4ccc5c(c4)S(=O)(=O)CCC5)C(C)C)ncnc3[nH]2)cn1`, the inhibition in the series filed under Rattus norvegicus was -2%; in series [1], 1%; in [2], 12%; in [3] it was 0%; in series [4], 3%; in series [5] it was -1%. Further, the inhibition in series [6] was 0%; in series [7], -9%; in series [8] it was 27%; in [9], 15%; in series [11], 11%. The Inhibition is given as 11% in [10] and -1% in series [12].
In the case of `CNCc1cc(-c2cc3c(N[C@@H](c4ccc5c(c4)S(=O)(=O)CCC5)C(C)C)ncnc3[nH]2)co1`, the inhibition in the series listed under Rattus norvegicus was 1%; in series [1], 50%; in [2], 29%; in series [3], 45%; in series [4], -5%; in series [5], -1%. Also, the inhibition was 10% in series [6]; 5% in series [7]; 24% in series [8]; 13% in [9]; 50% in [11]. The values for the Inhibition in series [10] and in [12] were 19% and -3%, respectively.
In the case of `COc1ccc([C@H](Cc2nnn[nH]2)NC(=O)c2ncnc3[nH]ccc23)cc1`, the inhibition is -1% in the series filed under Rattus norvegicus; 7% in [1]; -4% in [2]; -3% in series [4]; 9% in series [5]; -2% in series [6]. The inhibition in series [8] was -1%; in [9], 5%; in [11] it was -7%. In addition, the figures for the Inhibition in series [10] and in series [12] were -3% and -22%, respectively.
Turning to `CC(C)[C@@H](Nc1ncnc2[nH]c(C(=O)N[C@@H]3CCN(C)C3)cc12)c1ccc2c(c1)S(=O)(=O)CCC2`, the inhibition in the series listed under Rattus norvegicus amounted to 2%; in [1] it was 22%; in series [2], 1%; in [3] it was 17%; in series [4] it was 7%; in series [5], 1%. Also, the inhibition is -5% in series [6]; -9% in series [7]; 4% in series [8]; 6% in series [9]; 38% in [11]. Also, the Inhibition is given as 16% in [10] and -6% in series [12].
Consider `CC(C)[C@H](Nc1ncnc2[nH]ccc12)c1ccc2c(c1)S(=O)(=O)CCC2`, for which the inhibition in the series listed under Rattus norvegicus was -10%; in [1], 27%; in series [2], 12%; in series [3], 0%; in [4] it was 8%; in series [5], -1%. Besides, the inhibition in series [6] is 0%; in series [7] it was 5%; in series [8], 23%; in series [9], 6%; in series [11], -2%. Also, the Inhibition in [10] is -5%; in series [12], 12%.
As for `Cc1nn(C)cc1-c1cc2c(N[C@H](c3ccc4c(c3)S(=O)(=O)CCC4)C(C)C)ncnc2[nH]1`, the inhibition in the series filed under Rattus norvegicus is 1%; in series [1] it was 13%; in [2] it was 51%; in series [3], 15%; in series [4], 28%; in series [5], -2%. In addition, the inhibition in series [6] was 6%; in series [7], -9%; in [8], 23%; in series [9], 14%; in [11], 8%. Moreover, the figures for the Inhibition in series [10] and in [12] were -1% and 12%, respectively.
As for `CC(C)[C@H](Nc1ncnc2[nH]c(-c3cnn(C)c3C#N)cc12)c1ccc2c(n1)OCCO2`, the inhibition was 0% in the series filed under Rattus norvegicus; 29% in series [1]; 15% in series [2]; 15% in [4]; 2% in [5]; -3% in series [6]. Moreover, the results for the inhibition in [8], in series [9] and in series [11] were -2%, 27% and 34%, respectively. In addition, the Inhibition in series [10] is 10%; in [12] it was 9%.
